# Tests used:
# [1] = target: FLT4 (VEGFR3) (Homo sapiens, UniProt P35916); experiment: SelectScreen kinase profiling, FLT4; type: biochemical; details: read-out: Enzyme inhibitory activity IC50
# [2] = target: ERBB2 (HER2) (Homo sapiens, UniProt P04626); experiment: SelectScreen kinase profiling, ERBB2; type: biochemical; details: read-out: Enzyme inhibitory activity IC50
# [3] = target: MAPK9 (JNK2) (Homo sapiens, UniProt P45984); experiment: SelectScreen kinase profiling, MAPK9; type: biochemical; details: read-out: Enzyme inhibitory activity IC50
# Sequence of MAPK9 (JNK2) (P45984 whole entry): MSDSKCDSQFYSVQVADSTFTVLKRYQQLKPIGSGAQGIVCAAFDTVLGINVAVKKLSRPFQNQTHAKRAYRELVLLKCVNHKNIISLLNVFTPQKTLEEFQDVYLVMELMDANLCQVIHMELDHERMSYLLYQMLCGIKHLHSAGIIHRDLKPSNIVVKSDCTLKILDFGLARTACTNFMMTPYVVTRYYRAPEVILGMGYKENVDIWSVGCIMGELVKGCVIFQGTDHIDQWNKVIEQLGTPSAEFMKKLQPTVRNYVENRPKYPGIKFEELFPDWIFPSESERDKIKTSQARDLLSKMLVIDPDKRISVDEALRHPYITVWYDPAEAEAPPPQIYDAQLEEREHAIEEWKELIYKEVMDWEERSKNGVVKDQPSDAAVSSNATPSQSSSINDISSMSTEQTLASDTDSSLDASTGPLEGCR
# [4] = target: MAPK8 (JNK1) (Homo sapiens, UniProt P45983); experiment: SelectScreen kinase profiling, MAPK8; type: biochemical; details: read-out: Enzyme inhibitory activity IC50
# [5] = target: KDR (VEGFR2) (Homo sapiens, UniProt P35968); experiment: SelectScreen kinase profiling, KDR; type: biochemical; details: read-out: Enzyme inhibitory activity IC50
# [6] = target: HCK (Homo sapiens, UniProt P08631); experiment: SelectScreen kinase profiling, HCK; type: biochemical; details: read-out: Enzyme inhibitory activity IC50
# [7] = target: JAK3 (Homo sapiens, UniProt P52333); experiment: SelectScreen biochemical kinase profiling, JAK3; details: JAK3, cell free; read-out: Enzyme inhibitory activity IC50
# Protocol: (§1) The in vitro kinase inhibitory assays in the presence of compounds 323-1 and 323-2 were carried out according to the Z′-LYTE™ Screening and LanthaScreen Eu Kinase Binding Assays Experimental Procedures in Invitrogen (ThermoFisher Scientific, Waltham, Mass., USA). For the Z′-LYTE™ Screening profiling for FRAP1 (mTOR), JAK3, and LTK (TYK1), a mixture containing the test compounds in 100% DMSO, 2.4 μL Kinase buffer (50 mM HEPES pH 7.5, 0.01% BRIJ-35, 10 mM MgCl2, 1 mM EGTA), 5 μL 2× Peptide/Kinase Mixture, 2.5 μL 4×ATP Solution were added into black 384-well low volume NBS and bar-coded corning plate (Corning Cat. #4514) and shake the plate for 30 seconds. After incubation at RT for 60 min, 5 μL Development Reagent Solution was added into plate and shake the plate for 30 seconds, followed by Development Reaction incubation at RT for 60 min. Read on fluorescence plate reader and analyze the data. […]
# (§2) Inhibition by compounds 323-1 and 323-2 of MAP2K4 (MEK4) and TGFBR1 (ALK5) was determined by […]. Inhibition by compounds 323-1 and 323-2 of FRAP1 (mTOR), JAK3, and LTK (TYK1) was determined by […] using the Adapta Universal Kinase Assay (Life Technologies). […]
# [8] = target: MAPK1 (ERK2) (Homo sapiens, UniProt P28482); experiment: SelectScreen kinase profiling, MAPK1; type: biochemical; details: read-out: Enzyme inhibitory activity IC50
# Sequence of MAPK1 (ERK2) (P28482 whole entry): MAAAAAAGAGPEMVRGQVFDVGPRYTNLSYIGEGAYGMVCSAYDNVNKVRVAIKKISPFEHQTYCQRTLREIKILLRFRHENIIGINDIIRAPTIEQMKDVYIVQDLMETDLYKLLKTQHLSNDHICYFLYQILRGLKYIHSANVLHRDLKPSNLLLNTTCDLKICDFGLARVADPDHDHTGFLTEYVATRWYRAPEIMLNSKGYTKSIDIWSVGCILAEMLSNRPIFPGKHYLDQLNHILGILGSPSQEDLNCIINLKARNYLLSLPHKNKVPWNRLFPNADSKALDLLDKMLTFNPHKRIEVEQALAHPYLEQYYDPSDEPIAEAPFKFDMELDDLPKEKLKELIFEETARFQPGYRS
# [9] = target: MAP2K6 (MKK6) (Homo sapiens, UniProt P52564); experiment: SelectScreen kinase profiling, MAP2K6; type: biochemical; details: read-out: Enzyme inhibitory activity IC50
# Sequence of MAP2K6 (MKK6) (P52564 whole entry): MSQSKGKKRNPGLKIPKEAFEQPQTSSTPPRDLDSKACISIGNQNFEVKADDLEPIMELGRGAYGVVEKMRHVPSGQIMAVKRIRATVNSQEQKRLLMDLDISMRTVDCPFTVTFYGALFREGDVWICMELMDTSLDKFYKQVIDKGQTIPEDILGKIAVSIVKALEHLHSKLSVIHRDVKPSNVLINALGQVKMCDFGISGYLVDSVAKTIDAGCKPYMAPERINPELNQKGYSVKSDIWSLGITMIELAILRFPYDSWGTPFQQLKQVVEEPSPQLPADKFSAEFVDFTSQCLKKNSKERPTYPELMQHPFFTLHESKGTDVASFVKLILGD
# [10] = target: AKT1 (PKB alpha) (Homo sapiens, UniProt P31749); experiment: SelectScreen kinase profiling, AKT1; type: biochemical; details: read-out: Enzyme inhibitory activity IC50
# Sequence of AKT1 (PKB alpha) (P31749 whole entry): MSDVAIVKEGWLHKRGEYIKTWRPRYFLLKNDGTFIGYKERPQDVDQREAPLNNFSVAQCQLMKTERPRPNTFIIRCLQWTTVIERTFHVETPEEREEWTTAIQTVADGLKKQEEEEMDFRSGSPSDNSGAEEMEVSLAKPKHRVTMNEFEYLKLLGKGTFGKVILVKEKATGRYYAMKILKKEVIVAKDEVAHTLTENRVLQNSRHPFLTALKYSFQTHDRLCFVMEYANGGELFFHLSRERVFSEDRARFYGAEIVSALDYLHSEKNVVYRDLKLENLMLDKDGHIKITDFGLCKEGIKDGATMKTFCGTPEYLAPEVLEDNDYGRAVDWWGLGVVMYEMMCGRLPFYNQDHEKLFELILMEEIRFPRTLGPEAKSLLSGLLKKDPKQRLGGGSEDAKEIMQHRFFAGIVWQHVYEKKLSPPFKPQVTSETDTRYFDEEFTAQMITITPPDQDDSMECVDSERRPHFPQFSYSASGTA
# [11] = target: MET (cMet) (Homo sapiens, UniProt P08581); experiment: SelectScreen kinase profiling, MET; type: biochemical; details: read-out: Enzyme inhibitory activity IC50
# Sequence of MET (cMet) (P08581 25-1390): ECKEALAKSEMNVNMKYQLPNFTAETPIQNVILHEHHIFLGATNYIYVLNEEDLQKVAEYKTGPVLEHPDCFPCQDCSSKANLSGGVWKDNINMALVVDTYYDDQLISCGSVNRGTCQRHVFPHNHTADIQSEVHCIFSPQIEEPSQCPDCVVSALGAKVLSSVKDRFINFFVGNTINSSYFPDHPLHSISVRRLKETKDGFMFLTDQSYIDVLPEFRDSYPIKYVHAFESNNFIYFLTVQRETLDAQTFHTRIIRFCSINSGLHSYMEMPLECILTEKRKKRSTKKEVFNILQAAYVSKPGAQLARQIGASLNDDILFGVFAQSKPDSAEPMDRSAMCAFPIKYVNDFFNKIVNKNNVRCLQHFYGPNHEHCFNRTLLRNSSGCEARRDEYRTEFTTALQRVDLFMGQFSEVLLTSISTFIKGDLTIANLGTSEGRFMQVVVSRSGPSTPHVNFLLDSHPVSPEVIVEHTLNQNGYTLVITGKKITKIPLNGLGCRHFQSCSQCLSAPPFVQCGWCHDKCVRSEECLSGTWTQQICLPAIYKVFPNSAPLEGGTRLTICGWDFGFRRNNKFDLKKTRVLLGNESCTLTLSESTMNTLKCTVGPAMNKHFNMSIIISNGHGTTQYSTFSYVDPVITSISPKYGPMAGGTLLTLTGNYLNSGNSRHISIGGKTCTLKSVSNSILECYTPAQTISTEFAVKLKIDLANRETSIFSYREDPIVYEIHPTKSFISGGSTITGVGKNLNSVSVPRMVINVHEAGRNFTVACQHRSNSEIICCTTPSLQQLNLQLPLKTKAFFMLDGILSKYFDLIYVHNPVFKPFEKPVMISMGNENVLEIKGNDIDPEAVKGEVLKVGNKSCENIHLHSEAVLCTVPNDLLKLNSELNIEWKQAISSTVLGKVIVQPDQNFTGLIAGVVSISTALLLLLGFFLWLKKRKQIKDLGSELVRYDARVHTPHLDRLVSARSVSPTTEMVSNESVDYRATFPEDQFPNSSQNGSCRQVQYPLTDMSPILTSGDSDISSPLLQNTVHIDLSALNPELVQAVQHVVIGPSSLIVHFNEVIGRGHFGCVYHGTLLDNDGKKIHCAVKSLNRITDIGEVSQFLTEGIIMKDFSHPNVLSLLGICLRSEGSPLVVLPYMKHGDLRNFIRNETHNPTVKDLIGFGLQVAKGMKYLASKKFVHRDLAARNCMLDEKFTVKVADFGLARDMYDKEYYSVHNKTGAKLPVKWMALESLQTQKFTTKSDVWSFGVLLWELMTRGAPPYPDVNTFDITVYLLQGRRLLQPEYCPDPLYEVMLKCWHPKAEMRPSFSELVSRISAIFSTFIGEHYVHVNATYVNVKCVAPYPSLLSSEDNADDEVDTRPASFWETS
# [12] = target: JAK2 (Homo sapiens, UniProt O60674); experiment: SelectScreen kinase profiling, JAK2; type: biochemical; details: read-out: Enzyme inhibitory activity IC50
# Sequence of JAK2 (O60674 whole entry): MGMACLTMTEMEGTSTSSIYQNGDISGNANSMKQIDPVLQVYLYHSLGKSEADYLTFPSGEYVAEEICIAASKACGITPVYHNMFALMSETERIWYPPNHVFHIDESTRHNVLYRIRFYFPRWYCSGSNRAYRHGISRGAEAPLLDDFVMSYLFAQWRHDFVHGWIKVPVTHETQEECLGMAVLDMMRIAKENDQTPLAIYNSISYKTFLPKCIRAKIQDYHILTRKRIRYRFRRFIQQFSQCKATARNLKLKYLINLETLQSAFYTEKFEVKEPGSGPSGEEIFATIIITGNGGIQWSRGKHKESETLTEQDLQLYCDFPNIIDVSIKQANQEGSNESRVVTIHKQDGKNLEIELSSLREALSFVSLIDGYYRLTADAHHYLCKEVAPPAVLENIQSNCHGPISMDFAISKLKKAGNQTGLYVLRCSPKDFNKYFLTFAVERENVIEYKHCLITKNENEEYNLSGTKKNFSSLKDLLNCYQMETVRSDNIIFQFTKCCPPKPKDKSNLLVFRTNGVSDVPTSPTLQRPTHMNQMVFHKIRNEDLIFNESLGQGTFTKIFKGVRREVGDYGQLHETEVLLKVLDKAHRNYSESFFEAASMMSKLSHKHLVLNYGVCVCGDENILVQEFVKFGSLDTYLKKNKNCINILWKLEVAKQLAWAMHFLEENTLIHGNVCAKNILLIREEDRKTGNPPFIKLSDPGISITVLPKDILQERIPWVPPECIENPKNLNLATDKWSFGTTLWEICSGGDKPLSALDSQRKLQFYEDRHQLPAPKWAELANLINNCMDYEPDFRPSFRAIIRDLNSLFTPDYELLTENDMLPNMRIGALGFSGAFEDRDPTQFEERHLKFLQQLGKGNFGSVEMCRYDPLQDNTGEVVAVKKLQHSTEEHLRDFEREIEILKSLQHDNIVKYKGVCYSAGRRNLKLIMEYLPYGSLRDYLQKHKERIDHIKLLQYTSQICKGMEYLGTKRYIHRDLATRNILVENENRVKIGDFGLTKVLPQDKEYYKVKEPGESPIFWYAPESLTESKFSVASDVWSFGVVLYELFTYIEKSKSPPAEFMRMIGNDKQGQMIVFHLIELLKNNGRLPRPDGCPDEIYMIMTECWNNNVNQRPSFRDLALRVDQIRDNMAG
# [13] = target: PDGFRB (PDGFR beta) (Homo sapiens, UniProt P09619); experiment: SelectScreen kinase profiling, PDGFRB; type: biochemical; details: read-out: Enzyme inhibitory activity IC50
# [14] = target: MAPK10 (JNK3) (Homo sapiens, UniProt P53779); experiment: SelectScreen kinase profiling, MAPK10; type: biochemical; details: read-out: Enzyme inhibitory activity IC50
# [15] = target: TGFBR2 (Homo sapiens, UniProt P37173); experiment: SelectScreen kinase profiling, TGFBR2; type: biochemical; details: read-out: Enzyme inhibitory activity IC50
# Sequence of TGFBR2 (P37173 23-567): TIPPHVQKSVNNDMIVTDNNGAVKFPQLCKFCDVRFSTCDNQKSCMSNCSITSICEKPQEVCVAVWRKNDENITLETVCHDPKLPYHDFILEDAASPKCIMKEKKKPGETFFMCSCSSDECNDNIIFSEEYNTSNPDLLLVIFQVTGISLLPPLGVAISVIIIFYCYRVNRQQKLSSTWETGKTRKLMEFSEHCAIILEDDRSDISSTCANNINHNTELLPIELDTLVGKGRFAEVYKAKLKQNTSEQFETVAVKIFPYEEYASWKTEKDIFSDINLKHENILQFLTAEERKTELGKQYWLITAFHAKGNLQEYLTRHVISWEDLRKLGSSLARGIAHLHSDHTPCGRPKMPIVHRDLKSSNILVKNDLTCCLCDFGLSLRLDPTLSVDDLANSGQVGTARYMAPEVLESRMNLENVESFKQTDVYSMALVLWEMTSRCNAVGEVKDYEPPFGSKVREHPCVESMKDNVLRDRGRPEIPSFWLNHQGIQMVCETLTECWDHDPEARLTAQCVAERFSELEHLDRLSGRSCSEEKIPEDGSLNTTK
# [16] = target: FGFR4 (Homo sapiens, UniProt P22455); experiment: SelectScreen kinase profiling, FGFR4; type: biochemical; details: read-out: Enzyme inhibitory activity IC50
# [17] = target: TGFBR1 (ALK5) (Homo sapiens, UniProt P36897); experiment: SelectScreen kinase profiling, TGFBR1 (ALK5); type: binding; details: cell free, read-out: Enzyme inhibitory activity IC50
# Protocol: as §1, §2
Structure (SMILES),IC50 [1],IC50 [2],IC50 [3],IC50 [4],IC50 [5],IC50 [6],IC50 [7],IC50 [8],IC50 [9],IC50 [10],IC50 [11],IC50 [12],IC50 [13],IC50 [14],IC50 [15],IC50 [16],IC50 [17]
"C[C@@H]1CCC(c2cc3c4c(cncc4c2)[C@H](C)C3)=C1C=O [323-1, (15R,2R)-Delavatine A]",> 20 µM,> 20 µM,> 20 µM,> 20 µM,> 20 µM,> 20 µM,4.26 µM,> 20 µM,> 20 µM,> 20 µM,> 20 µM,> 20 µM,> 20 µM,> 20 µM,> 20 µM,> 20 µM,7.95 µM
"C[C@@H]1CCC(c2cc3c4c(cncc4c2)[C@@H](C)C3)=C1C=O [323-2, (15S,2R)-Delavatine A]",> 20 µM,> 20 µM,> 20 µM,> 20 µM,> 20 µM,> 20 µM,11.6 µM,> 20 µM,> 20 µM,> 20 µM,> 20 µM,> 20 µM,> 20 µM,> 20 µM,> 20 µM,> 20 µM,9.25 µM
